From patent publication US5212179A, “Piperidine derivatives” (John Wyeth and Brother Limited, priority 1980, dated 1993)

Tests used:
[1] = system: 5-hydroxy-L-tryptophan (5-HTP) induced behavioural syndrome; test: Potentiation of 5-HTP induced behavioural syndrome, dose/response study in rats; format: in vivo; conditions: Rattus norvegicus, ip, 5-HTP 70 mg/kg i.p.
Method: (§1) Thus, this test can be used as an indication of in vivo 5-HT uptake inhibition.
b) Dose/Response study in rats
Groups of 6 male rats (150 g) were dosed with test compound suspended in HPMC. Thirty minutes later 5-HTP (70 mg/kg 5 i.p.) was given and the number of signs/rat recorded between 20 and 35 minutes post 5-HTP. Linear regression analysis of the results was performed and the ED50 calculated from this.

[2] = system: uptake of ^3 H noradrenaline into rat brain synaptosomes; test: Inhibition of 3H noradrenaline uptake into rat brain synaptosomes; format: biochemical, male Sprague Dawley rats; conditions: 37° C., 4 minutes, read-out: IC50 NA uptake
Method: (§2) The test procedure involved obtaining synaptosomal preparations from male Sprague Dawley rats according to the method of Grey and Whittaker* as modified by Wood and Wyllie.** Aliquots of the synaptosomal preparation were then incubated with tritrated noradrenaline (NA) or 5-HT at a temperature of 37° C. for 4 minutes. The active synaptosomal accumulation of labelled substrate was measured by filtration and scintillation counting. The effect at a range of concentrations of test compound enabled IC50 values and selectivity ratios to be calculated.
(§3) * Grey and Whittaker,--J. Anat. 96 79 (1962)
(§4) ** Wood and Wyllie, J. Neurochemistry, 37, 795 (1981)

[3] = system: p-chloroamphetamine (pCA) induced hyperactivity; test: Inhibition of p-chloroamphetamine (pCA) induced hyperactivity in mice; format: in vivo; conditions: Mus musculus, po, female mice, 50 mg/kg po, pCA 20 mg/kg ip, 10-30 minutes post pCA
Method: The following test procedure was used to test for ability to inhibit p-chloroamphetamine induced hyperactivity.
Three groups of 4 female mice (20-24 g) receive the test compounds (50 mg/kg po) and a fourth group the requisite volume of vehicle. Thirty minutes later all the animals are given 20 mg/kg p-chloroamphetamine (pCA) ip. The grouped mice are placed immediately in square plastic cages in activity monitors and their motor activity recorded over the period 10-30 minutes post pCA. This procedure is repeated three more times so that four groups of mice are used per treatment and each activity monitor is used with all treatments in turn. The inhibition of pCA induced hyperactivity is calculated thus: [formula] where C=mean activity of control groups 10-30 minutes post pCA.
T=mean activity of treated groups 10-30 minutes post pCA.
This test is used as an in vivo screen for detection of 5-hydroxytryptamineuptake inhibitors.
Compounds giving >50% inhibition are considered of special interest. In such a test the following compounds were particularly active: […]

[4] = system: neuronal uptake of 5-hydroxytryptamine into slices of cerebral cortex; test: Inhibition of 5-hydroxytryptamine (5-HT) uptake in brain slices; format: biochemical; conditions: rat cerebral cortex slices, relative to imipramine
Method: Compounds of formula I were tested for ability to inhibit 5-hydroxytryptamine (5-HT) uptake in brain slices using the following procedure:
Concentration-response curves for the test compound and for the standard agent, imipramine, are obtained. The potency of the test compound is expressed in proportion to that of imipramine. Thus, the potency ratio for the test compound [formula]

[5] = system: 5-hydroxy-L-tryptophan (5-HTP) induced behavioural syndrome; test: Potentiation of 5-HTP induced behavioural syndrome, dose/response study in mice; format: in vivo; conditions: Mus musculus, po, 5-HTP 80 mg/kg i.p.
Method: as §1
a) Dose/response study in mice
Groups of 12 (2 subgroups of 6) female mice (18-22g) were used per dose, each group being housed in a separate cage for the duration of the experiment. Mice were dosed p.o. with either test compound or vehicle (0.5% HPMC) and 30 minutes later received a threshold dose of 5-HTP (80 mg/kg i.p.) and were placed in perspex cylinders (12" diameter).
The dose that produced the syndrome in 50% of the mice was calculated using the method of Litchfield and Wilcoxon, […]

[6] = system: uptake of 5-HT into rat brain synaptosomes; test: Inhibition of 5-HT uptake into rat brain synaptosomes; format: biochemical, male Sprague Dawley rats
Method: as §2, §3, §4

[7] = system: 5-hydroxy-L-tryptophan induced behavioural syndrome; test: Potentiation of 5-hydroxytryptophan (5-HTP)-induced behaviour in rats; format: in vivo, male Sprague-Dawley rats; conditions: Rattus norvegicus, po, 5-HTP 50 mg/kg s.c., citrate salt, corrected for amount of base
Method: The compound (C) was also tested for its ability to potentiate 5-hydroxy-L-tryptophan induced behavioural syndrome in rats. The test procedure is described below
Potentiation of 5-hydroxytryptophan (5-HTP)-induced behaviour
Groups of 10 male Sprague-Dawley rats (310-360 g) were dosed p.o. with vehicle or drugs. Ninety minutes later 5-HTP (50 mg/kg s.c.) was administered and the animals placed in individual observation chambers (peripheral decarboxylation was prevented by 25 mg/kg i.p. carbidopa administered 60 minutes before 5-HTP). Head shakes were counted over the period 30-45 minutes after 5-HTP and the intensity of the 5-HT syndrome was scored immediately afterwards using the system described for the pCA procedure above. Percentage potentiation of syndrome was calculated as follows: […]
Percentage potentiation was calculated from the following: [formula]

[8] = system: p-chloroamphetamine (pCA)-induced stereotypy; test: Inhibition of p-chloroamphetamine (pCA)-induced stereotypy in rats; format: in vivo, male Sprague-Dawley rats; conditions: for ED50: Rattus norvegicus, po, 90 minutes before pCA 10 mg/kg i.p., results for succinate salt corrected for amount of active material, read-out: ED50 (dose required to produce 50% inhibition of pCA induced stereotypy); for ED50 / antagonism of pCA-induced stereotypy (in words): rats, p.o.; for antagonism of pCA-induced stereotypy (in words): 5 dose levels
Method: Representative compounds of formula IA were tested for their ability to inhibit pCA induced syndrome in rats by the standard procedure described below:
Inhibition of p-chloroamphetamine (pCA)-induced stereotypy
Vehicle or drug (5 dose levels) were administered p.o. to six groups of 6-8 male Sprague-Dawley rats (300-400 g) followed, 90 minutes later, by pCA (10 mg/kg i.p.). The animals were then placed in individual observation chambers and, 30 minutes after pCA administration, the intensity of the pCA-induced 5-HT syndrome was assessed according to the following scoring system: […]
Therefore, the maximum score for each animal was 10.
The inhibition of pCA induced stereotypy is calculated for each dose level as follows: [formula] where C=control group total score at 30 minutes post pCA.
T=group total score of treated group at 30 minutes post pCA.
For each dose a % effect is calculated.
The results obtained from the tests using 5 different dose levels of the drug allow the ED50 value (i.e. the dose required to produce 50% inhibition of pCA induced stereotypy) to be calculated.
The test was carried out using the free bases for compound C. Compound B was tested in the form of the succinate salt and the results corrected for amount of active material.

With `O=C(NC(=O)c1ccccc1)NC1CCN(Cc2ccc3ccccc3c2)CC1` [Example 1, 1-Benzoyl-3-[1-(naphth-2-ylmethyl)piperid-4-yl]urea] the ED50 [1] was 5.3 mg/kg, the IC50 [2] was 20 µM and the inhibition in vivo at 50 mg/kg [3] was 67.5%. The “potency ratio (imipramine=1.0)” value [4] was 8.8, the ED50 [5] was 7.2 mg/kg and the “Selectivity Ratio” value ([6]; 5-HT uptake relative to NA uptake) was 455. It also gave an IC50 ([6]; 37° C., 4 minutes) of 0.044 µM.

Work on `O=C(NC(=O)c1ccccc1)NC1CCN(Cc2cccc3ccccc23)CC1` [Example 2, 1-Benzoyl-3-[1-(naphth-1-ylmethyl)piperid-4-yl]urea] yielded an inhibition in vivo at 50 mg/kg [3] of 56.4%.

`CC(C)c1ccc(CN2CCC(NC(=O)NC(=O)c3ccccc3)CC2)cc1` [Example 3, 1-Benzoyl-3-[1-(4-isopropylbenzyl)piperid-4-yl]urea] showed an inhibition in vivo at 50 mg/kg [3] of 49%.

With `Cc1ccc(CN2CCC(NC(=O)NC(=O)c3ccccc3)CC2)cc1C` [Example 6, 1-Benzoyl-3-[1-(3,4-dimethylbenzyl)piperid-4-yl]urea] the inhibition in vivo at 50 mg/kg [3] was 68.9%.

With `O=C(NC(=O)c1ccccc1)NC1CCN(Cc2ccc3c(c2)CCCC3)CC1` [Example 14, 1-Benzoyl-3-[1-(5,6,7,8-tetrahydro-naphth-2-ylmethyl)piperid-4-yl]urea] the inhibition in vivo at 50 mg/kg [3] was 69.4%.

Work on `CCc1ccc(CN2CCC(NC(=O)NC(=O)c3ccccc3)CC2)cc1` [Example 15, 1-Benzoyl-3-[1-(4-ethylbenzyl)piperid-4-yl]urea] yielded an inhibition in vivo at 50 mg/kg [3] of 72.9%.

With `O=C(NC(=O)c1ccccc1)NC1CCN(Cc2ccc3c(c2)CCC3)CC1` [Example 20, 1-Benzoyl-3-[1-(indan-5-ylmethyl)-piperid-4-yl]urea] the inhibition in vivo at 50 mg/kg [3] was 59.3%.

In the case of `CC(c1ccc2ccccc2c1)N1CCC(NC(=O)NC(=O)c2ccccc2)CC1` (centres unmarked) [Example 21, 1-Benzoyl-3-[1-(1-(naphth-2-yl)ethyl)-piperid-4-yl]urea], the inhibition in vivo at 50 mg/kg [3] is reported as 71.7%.

With `O=C(NC(=O)c1cccnc1)NC1CCN(Cc2ccc3cc(F)ccc3c2)CC1` [Example 62, N[[[1-[(6-Fluoro-2-naphthalenyl)methyl]-4-piperidinyl]amino]carbonyl]-3-pyridinecarboxamide] the ED50 [7] was 5 mg/kg, the inhibition of syndrome ([8]; At 50 mg/kg) was 99% and the ED50 [8] was 2.5 mg/kg. For the same molecule, the “antagonism of pCA-induced stereotypy (in words)” value [8] was “antagonised pCA-induced stereotypy in a dose-dependent manner”.

`O=C(NC(=O)c1ccncc1)NC1CCN(Cc2ccc3cc(F)ccc3c2)CC1` [Example 63, N-[[[1-[(6-Fluoro-2-naphthalenyl)methyl]-4-piperidinyl]amino]carbonyl]-4-pyridinecarboxamide] was tested, and the ED50 [8] was 3.8 mg/kg and the “antagonism of pCA-induced stereotypy (in words)” value [8] was “antagonised pCA-induced stereotypy in a dose-dependent manner”.

`CN(C)CCCN1c2ccccc2CCc2ccc(Cl)cc21` [clomipramine, reference compound] gave an ED50 [1] of 39.2 mg/kg and an ED50 [5] of 18 mg/kg.

For `CN(C)CCCN1c2ccccc2CCc2ccccc21` [imipramine, reference compound], the “potency ratio (imipramine=1.0)” value [4] was 1.0.
